In paper PMC3270411 (Chemistry & biology, 2012):

Assays:
Experiment in all cases: KiNativ cellular kinase profiling
Format in all cases: cell-based
JNK1,JNK2,JNK3 = details: A375 cells, 1 μM, 3 hours; JNK1,JNK2,JNK3, labeling site Lys2
GSK3A = GSK3A (Homo sapiens, UniProt P49840); details: for Percent inhibition of kinase labeling by ATP-biotin: A375 cells, 1 μM, 3 hours, GSK3A, labeling site Lys2; for inhibition at 1 µM: A-375, read-out: Percent inhibition of kinase labeling by ATP-biotin
CDK9 = CDK9 (Homo sapiens, UniProt P50750); details: for Percent inhibition of kinase labeling by ATP-biotin: A375 cells, 1 μM, 3 hours, CDK9, labeling site Lys2; for inhibition at 1 µM: A-375, read-out: Percent inhibition of kinase labeling by ATP-biotin
MARK1 = MARK1 (Homo sapiens, UniProt Q9P0L2); details: for Percent inhibition of kinase labeling by ATP-biotin: A375 cells, 1 μM, 3 hours, MARK1, labeling site Lys2; for inhibition at 1 µM: A-375, read-out: Percent inhibition of kinase labeling by ATP-biotin
MARK3 = MARK3 (Homo sapiens, UniProt P27448); details: for Percent inhibition of kinase labeling by ATP-biotin: A375 cells, 1 μM, 3 hours, MARK3, labeling site Lys1; for inhibition at 1 µM: A-375, read-out: Percent inhibition of kinase labeling by ATP-biotin
CK1a = CK1a (Homo sapiens, UniProt P48729); details: for Percent inhibition of kinase labeling by ATP-biotin: A375 cells, 1 μM, 3 hours, CK1a, labeling site Lys2; for inhibition at 1 µM: A-375, read-out: Percent inhibition of kinase labeling by ATP-biotin
IKKa = target: T1, IKKa (Homo sapiens, UniProt O15111); details: for Percent inhibition of kinase labeling by ATP-biotin: A375 cells, 1 μM, 3 hours, IKKa, labeling site Lys2; for inhibition at 1 µM: A-375, read-out: Percent inhibition of kinase labeling by ATP-biotin
T1 sequence (O15111 1-745): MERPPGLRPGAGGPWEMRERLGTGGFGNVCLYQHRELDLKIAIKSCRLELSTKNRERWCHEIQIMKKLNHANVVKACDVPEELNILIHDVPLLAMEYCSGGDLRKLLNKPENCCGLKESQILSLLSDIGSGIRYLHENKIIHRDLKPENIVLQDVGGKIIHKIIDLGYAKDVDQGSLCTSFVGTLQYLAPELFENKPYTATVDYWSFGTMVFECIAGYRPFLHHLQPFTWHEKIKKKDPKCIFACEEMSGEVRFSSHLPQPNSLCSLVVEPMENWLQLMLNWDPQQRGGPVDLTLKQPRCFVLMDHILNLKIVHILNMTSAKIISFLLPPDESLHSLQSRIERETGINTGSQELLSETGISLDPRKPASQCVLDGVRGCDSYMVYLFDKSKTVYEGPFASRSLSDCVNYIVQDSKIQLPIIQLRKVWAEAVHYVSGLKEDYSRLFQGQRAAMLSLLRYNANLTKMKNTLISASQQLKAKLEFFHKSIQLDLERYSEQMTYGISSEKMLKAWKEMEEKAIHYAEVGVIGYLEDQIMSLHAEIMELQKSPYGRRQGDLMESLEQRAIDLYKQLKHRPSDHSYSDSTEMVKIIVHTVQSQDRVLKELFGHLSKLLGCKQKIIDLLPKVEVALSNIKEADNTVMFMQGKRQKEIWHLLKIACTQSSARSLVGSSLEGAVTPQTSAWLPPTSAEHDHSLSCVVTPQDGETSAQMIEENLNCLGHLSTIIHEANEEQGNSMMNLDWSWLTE

[1] = system: ZC1/HGK,ZC2/TNIK, ZC3/MINK; details: A375 cells, 1 μM, 3 hours, labeling site Lys2
TAO2 = target: T2, TAO2 (Homo sapiens, UniProt Q9UL54); details: for Percent inhibition of kinase labeling by ATP-biotin: A375 cells, 1 μM, 3 hours, TAO2, labeling site Lys2; for inhibition at 1 µM: A-375, read-out: Percent inhibition of kinase labeling by ATP-biotin
T2 sequence (Q9UL54 1-1235): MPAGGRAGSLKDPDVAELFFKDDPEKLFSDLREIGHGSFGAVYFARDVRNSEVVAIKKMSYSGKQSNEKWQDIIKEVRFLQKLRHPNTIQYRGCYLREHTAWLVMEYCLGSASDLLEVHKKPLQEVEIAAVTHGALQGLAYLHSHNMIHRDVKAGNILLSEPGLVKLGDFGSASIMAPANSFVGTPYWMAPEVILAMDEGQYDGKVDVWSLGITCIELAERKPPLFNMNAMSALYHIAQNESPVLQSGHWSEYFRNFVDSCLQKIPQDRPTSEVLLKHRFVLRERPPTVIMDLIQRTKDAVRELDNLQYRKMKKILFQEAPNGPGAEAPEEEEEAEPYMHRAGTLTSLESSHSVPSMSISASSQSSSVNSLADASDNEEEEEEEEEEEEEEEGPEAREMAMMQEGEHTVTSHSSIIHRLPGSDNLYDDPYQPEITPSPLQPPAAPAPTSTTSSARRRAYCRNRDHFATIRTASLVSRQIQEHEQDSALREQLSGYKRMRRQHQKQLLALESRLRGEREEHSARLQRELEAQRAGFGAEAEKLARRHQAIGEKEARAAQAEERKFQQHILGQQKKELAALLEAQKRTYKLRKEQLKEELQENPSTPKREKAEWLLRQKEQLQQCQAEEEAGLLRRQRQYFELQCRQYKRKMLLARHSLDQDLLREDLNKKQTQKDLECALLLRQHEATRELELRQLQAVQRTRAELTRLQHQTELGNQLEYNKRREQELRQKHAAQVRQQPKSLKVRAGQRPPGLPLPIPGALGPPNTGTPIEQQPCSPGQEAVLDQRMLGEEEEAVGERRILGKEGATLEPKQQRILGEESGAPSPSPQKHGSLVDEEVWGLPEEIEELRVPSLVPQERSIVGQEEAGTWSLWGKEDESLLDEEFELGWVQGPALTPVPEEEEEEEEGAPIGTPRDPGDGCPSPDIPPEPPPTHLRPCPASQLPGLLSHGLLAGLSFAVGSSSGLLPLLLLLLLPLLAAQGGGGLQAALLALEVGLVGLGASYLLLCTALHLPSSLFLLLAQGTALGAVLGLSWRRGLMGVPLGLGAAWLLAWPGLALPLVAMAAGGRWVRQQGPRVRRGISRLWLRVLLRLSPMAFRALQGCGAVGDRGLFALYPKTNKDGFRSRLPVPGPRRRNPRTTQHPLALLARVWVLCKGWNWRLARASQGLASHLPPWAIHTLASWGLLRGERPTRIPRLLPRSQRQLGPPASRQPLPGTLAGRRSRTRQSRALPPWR

MAP2K1,MAP2K2 = details: A375 cells, 1 μM, 3 hours; MAP2K1,MAP2K2, labeling site Lys2
BRAF = BRAF (Homo sapiens, UniProt P15056); details: for Percent inhibition of kinase labeling by ATP-biotin: A375 cells, 1 μM, 3 hours, BRAF, labeling site Lys2; for inhibition at 1 µM: A-375, read-out: Percent inhibition of kinase labeling by ATP-biotin
RAF1 = RAF1 (Homo sapiens, UniProt P04049); details: for Percent inhibition of kinase labeling by ATP-biotin: A375 cells, 1 μM, 3 hours, RAF1, labeling site Lys2; for inhibition at 1 µM: A-375, read-out: Percent inhibition of kinase labeling by ATP-biotin
Chain of RAF1 (P04049 whole entry): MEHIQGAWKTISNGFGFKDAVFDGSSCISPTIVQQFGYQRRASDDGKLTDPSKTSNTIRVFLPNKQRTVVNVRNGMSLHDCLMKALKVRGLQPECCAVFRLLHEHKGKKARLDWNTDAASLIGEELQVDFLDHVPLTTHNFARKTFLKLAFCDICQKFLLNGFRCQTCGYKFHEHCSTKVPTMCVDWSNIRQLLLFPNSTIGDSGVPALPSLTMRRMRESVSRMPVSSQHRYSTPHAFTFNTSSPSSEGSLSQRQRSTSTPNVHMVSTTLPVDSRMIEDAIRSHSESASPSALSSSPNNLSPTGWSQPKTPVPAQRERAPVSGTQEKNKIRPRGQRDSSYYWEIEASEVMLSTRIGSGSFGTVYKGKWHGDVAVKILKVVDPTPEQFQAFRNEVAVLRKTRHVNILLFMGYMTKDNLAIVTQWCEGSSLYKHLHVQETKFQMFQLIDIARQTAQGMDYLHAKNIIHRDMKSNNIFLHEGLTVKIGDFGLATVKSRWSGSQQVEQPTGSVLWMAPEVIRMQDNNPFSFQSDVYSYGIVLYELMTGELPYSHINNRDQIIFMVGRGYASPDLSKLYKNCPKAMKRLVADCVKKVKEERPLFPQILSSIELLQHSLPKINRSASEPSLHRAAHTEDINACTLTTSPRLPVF

Chain of GSK3A (P49840 whole entry): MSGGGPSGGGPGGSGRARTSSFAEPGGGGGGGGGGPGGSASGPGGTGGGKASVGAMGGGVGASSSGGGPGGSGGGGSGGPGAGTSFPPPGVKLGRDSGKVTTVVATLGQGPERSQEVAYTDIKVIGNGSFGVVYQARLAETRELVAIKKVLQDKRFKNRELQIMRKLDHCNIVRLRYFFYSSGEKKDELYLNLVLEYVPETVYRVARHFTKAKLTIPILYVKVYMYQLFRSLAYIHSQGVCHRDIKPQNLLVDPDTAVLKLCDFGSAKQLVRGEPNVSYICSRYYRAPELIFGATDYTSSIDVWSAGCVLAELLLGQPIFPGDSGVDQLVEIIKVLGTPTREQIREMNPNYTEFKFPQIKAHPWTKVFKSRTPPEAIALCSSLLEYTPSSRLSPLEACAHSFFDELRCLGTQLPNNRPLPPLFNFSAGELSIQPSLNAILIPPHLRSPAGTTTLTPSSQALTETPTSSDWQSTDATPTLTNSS
Chain of MARK3 (P27448 whole entry): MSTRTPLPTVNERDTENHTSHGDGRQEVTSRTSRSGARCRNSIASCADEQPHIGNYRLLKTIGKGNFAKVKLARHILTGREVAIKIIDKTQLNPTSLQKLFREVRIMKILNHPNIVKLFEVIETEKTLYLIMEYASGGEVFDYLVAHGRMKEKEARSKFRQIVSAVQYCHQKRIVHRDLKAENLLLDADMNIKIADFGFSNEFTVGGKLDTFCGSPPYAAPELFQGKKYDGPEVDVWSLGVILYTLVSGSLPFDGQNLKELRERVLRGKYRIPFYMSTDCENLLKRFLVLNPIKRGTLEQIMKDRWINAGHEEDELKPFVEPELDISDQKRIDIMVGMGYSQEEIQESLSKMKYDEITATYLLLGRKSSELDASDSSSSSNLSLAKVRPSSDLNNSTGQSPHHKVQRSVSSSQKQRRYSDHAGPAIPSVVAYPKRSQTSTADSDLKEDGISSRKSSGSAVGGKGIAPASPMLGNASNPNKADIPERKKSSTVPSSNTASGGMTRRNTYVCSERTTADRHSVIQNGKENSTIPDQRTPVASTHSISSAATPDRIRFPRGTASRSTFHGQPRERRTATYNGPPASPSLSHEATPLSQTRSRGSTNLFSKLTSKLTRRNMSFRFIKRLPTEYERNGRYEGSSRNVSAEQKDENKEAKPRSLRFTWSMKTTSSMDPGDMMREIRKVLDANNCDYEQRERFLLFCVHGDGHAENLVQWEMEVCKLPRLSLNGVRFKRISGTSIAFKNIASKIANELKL
Chain of BRAF (P15056 whole entry): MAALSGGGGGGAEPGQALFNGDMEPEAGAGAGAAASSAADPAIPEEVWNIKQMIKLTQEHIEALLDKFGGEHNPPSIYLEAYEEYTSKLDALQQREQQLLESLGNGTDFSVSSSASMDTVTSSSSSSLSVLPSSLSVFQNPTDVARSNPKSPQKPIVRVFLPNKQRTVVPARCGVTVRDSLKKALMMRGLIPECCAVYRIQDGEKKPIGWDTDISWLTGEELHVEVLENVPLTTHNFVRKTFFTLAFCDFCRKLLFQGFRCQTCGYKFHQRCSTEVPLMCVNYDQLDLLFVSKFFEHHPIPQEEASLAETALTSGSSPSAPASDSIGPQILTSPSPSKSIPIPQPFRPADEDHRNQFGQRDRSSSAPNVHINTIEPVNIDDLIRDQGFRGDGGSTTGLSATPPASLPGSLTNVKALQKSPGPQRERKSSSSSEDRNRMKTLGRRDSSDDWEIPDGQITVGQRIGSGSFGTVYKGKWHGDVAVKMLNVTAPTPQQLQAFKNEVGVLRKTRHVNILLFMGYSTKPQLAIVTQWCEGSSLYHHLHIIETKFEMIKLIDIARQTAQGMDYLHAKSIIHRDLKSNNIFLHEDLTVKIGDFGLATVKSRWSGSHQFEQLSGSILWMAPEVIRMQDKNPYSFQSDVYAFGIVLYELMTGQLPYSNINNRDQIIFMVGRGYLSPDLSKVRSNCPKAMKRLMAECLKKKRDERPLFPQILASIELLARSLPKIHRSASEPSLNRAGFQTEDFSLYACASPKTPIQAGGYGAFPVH
Chain of CK1a (P48729 whole entry): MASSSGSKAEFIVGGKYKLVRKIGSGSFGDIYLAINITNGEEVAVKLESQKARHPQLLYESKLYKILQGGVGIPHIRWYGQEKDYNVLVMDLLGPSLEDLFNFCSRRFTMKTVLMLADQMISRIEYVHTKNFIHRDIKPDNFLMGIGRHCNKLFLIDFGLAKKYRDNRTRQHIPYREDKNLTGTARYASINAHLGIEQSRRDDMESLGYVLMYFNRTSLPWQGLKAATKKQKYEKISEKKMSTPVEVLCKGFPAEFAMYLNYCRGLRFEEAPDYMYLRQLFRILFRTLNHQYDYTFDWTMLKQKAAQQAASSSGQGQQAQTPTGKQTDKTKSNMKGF
Chain of CDK9 (P50750 whole entry): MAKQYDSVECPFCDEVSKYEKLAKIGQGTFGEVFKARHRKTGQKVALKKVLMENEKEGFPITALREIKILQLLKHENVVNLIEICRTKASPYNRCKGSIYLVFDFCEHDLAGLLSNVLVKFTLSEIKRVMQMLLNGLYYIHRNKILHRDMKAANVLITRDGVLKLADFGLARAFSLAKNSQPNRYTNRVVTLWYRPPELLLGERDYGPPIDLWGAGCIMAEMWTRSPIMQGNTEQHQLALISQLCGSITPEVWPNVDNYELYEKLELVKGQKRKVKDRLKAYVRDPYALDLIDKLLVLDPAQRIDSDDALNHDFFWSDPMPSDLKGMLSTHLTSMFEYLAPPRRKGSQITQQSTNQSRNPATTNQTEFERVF
Chain of CDK9 (O60563 whole entry partner): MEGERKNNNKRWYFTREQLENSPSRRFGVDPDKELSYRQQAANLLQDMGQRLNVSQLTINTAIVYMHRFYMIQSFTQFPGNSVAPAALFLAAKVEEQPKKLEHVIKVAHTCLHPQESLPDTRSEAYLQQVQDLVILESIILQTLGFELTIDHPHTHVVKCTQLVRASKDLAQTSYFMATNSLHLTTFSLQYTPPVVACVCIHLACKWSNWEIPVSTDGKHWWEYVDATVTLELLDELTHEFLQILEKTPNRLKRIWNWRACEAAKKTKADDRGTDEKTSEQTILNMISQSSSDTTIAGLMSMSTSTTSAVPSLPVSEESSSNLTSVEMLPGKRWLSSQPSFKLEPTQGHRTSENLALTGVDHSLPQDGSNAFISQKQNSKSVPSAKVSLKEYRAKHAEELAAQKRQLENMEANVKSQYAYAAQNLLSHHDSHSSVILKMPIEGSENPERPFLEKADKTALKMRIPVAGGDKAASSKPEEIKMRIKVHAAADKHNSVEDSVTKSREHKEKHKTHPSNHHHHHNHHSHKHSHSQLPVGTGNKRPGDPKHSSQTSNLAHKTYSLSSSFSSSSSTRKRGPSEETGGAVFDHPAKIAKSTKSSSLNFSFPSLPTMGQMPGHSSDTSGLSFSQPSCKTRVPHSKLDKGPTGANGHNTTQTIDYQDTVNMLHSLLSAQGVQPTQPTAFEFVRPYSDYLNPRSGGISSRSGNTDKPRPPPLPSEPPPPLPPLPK
Chain of MARK1 (Q9P0L2 whole entry): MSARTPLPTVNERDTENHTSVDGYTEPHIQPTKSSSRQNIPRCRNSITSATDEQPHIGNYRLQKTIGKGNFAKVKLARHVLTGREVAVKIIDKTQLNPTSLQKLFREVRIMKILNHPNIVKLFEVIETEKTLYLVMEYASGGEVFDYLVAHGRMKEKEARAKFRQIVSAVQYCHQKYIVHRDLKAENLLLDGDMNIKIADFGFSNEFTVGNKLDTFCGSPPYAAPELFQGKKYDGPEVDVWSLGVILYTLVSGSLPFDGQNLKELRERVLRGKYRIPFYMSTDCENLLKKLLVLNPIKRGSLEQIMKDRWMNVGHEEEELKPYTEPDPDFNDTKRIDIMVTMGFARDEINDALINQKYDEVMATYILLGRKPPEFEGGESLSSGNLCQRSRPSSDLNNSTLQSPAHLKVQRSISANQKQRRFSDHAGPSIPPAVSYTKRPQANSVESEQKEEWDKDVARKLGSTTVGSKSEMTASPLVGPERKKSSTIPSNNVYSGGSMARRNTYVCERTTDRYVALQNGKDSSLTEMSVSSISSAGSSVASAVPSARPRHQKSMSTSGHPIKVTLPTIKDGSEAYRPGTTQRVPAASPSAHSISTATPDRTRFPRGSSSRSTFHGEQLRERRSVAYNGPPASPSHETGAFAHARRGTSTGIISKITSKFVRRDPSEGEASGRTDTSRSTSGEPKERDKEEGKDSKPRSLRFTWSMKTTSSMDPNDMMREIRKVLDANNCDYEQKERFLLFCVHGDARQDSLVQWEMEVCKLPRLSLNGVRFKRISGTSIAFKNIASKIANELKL

| Structure (SMILES) | Percent inhibition of kinase labeling by ATP-biotin (JNK1,JNK2,JNK3) | Percent inhibition of kinase labeling by ATP-biotin (GSK3A) | Percent inhibition of kinase labeling by ATP-biotin (CDK9) | Percent inhibition of kinase labeling by ATP-biotin (MARK1) | Percent inhibition of kinase labeling by ATP-biotin (MARK3) | Percent inhibition of kinase labeling by ATP-biotin (CK1a) | Percent inhibition of kinase labeling by ATP-biotin (IKKa) | Percent inhibition of kinase labeling by ATP-biotin [1] | Percent inhibition of kinase labeling by ATP-biotin (TAO2) | Percent inhibition of kinase labeling by ATP-biotin (MAP2K1,MAP2K2) | Percent inhibition of kinase labeling by ATP-biotin (BRAF) | inhibition at 1 µM (GSK3A) | inhibition at 1 µM (CDK9) | inhibition at 1 µM (MARK1) | inhibition at 1 µM (MARK3) | inhibition at 1 µM (CK1a) | inhibition at 1 µM (IKKa) | inhibition at 1 µM (TAO2) | inhibition at 1 µM (BRAF) | inhibition at 1 µM (RAF1) | further results |
| --- | --- | --- | --- | --- | --- | --- | --- | --- | --- | --- | --- | --- | --- | --- | --- | --- | --- | --- | --- | --- | --- |
| CCC(=O)Nc1cccc(C(=O)Nc2ccc(Nc3nccc(-c4cccnc4)n3)cc2)c1 [JNK-IN-6] | 27.3% | 6.8% | 7.6% | 23.9% | −7.3% | 19.5% | 27.3% | 8.8% | 22.5% | 24.3% | 8.9% | – | – | – | – | – | – | – | – | – | Percent inhibition of kinase labeling by ATP-biotin (RAF1): −20.2% |
| CN(C)C/C=C/C(=O)Nc1cccc(C(=O)Nc2ccc(Nc3nccc(-c4cccnc4)n3)cc2)c1 [JNK-IN-7] | 99.7% | – | – | – | – | – | – | 8.3% | – | 3.2% | – | 20.4% | 16.6% | 7.9% | -13.5% | -20.2% | -9.2% | -3.7% | 7% | -7.3% | – |
| Cc1cc(NC(=O)c2cccc(NC(=O)/C=C/CN(C)C)c2)ccc1Nc1nccc(-c2cccnc2)n1 [JNK-IN-8] | 98.7% | – | – | – | – | – | – | −11.3% | – | 3.2% | – | 10.6% | -34.1% | 8.9% | -12% | -13.6% | 4.9% | -21.6% | -23.7% | -41.4% | – |
| CN(C)C/C=C/C(=O)Nc1cccc(C(=O)Nc2ccc(Nc3nccc(-c4c(-c5ccccc5)nn5ccccc45)n3)cc2)c1 [JNK-IN-11] | 99.8% | – | – | – | – | – | – | 65.1% | – | −10.4% | – | 40.7% | -23.4% | 18.6% | -27.8% | 61.1% | -7.3% | 42.6% | 27.8% | 25.5% | – |
| CN(C)C/C=C/C(=O)Nc1cccc(C(=O)Nc2ccc(Nc3nccc(/C(C#N)=C4\Nc5ccccc5S4)n3)cc2)c1 [JNK-IN-12] | 98.6% | −7.7% | −35.3% | −43.5% | −67.9% | −96% | −79.2% | −25.5% | −13% | −3.7% | 6.2% | – | – | – | – | – | – | – | – | – | Percent inhibition of kinase labeling by ATP-biotin (RAF1): 8.6% |
